Reference: PubChem BioAssay AID1745844 (Carcinogenic Potency Database (CPDB), 2022)
Active and inactive are the calls of the source. How the calls were made is not given here.

Tested on: rodent lifetime carcinogenesis bioassay, tumor incidence TD50
Assay: chronic cancer bioassays in animals – CPDB, compiled studies (AID 1745844)

Cn1cc(C(=O)[C@@H]2CCc3nc[nH]c3C2)c2ccccc21
carcinogen call (mouse, strain B6C3F1, females, by gavage, site: liver, lesion: hepatocellular adenoma, dosed 104 weeks, study length 104 weeks): negative (inactive) | TD50 (mouse, strain B6C3F1, females, by gavage, site: liver, lesion: hepatocellular carcinoma, dosed 104 weeks, study length 104 weeks): 1040 mg/kg/day (inactive) | carcinogen call (mouse, strain B6C3F1, females, by gavage, site: lung, lesion: adenoma, dosed 104 weeks, study length 104 weeks): negative (inactive) | carcinogen call (mouse, strain B6C3F1, females, by gavage, site: lung, lesion: carcinoma, dosed 104 weeks, study length 104 weeks): negative (inactive) | carcinogen call (mouse, strain B6C3F1, males, by gavage, site: liver, lesion: hepatocellular adenoma, dosed 104 weeks, study length 104 weeks): negative (inactive) | carcinogen call (mouse, strain B6C3F1, males, by gavage, site: liver, lesion: hepatocellular carcinoma, dosed 104 weeks, study length 104 weeks): negative (inactive) | carcinogen call (mouse, strain B6C3F1, males, by gavage, site: lung, lesion: adenoma, dosed 104 weeks, study length 104 weeks): negative (inactive) | carcinogen call (mouse, strain B6C3F1, males, by gavage, site: lung, lesion: carcinoma, dosed 104 weeks, study length 104 weeks): negative (inactive) | carcinogen call (rat, strain Fischer 344, females, by gavage, site: liver, lesion: hepatocellular adenoma, dosed 104 weeks, study length 104 weeks): negative (inactive) | carcinogen call (rat, strain Fischer 344, males, by gavage, site: liver, lesion: hepatocellular adenoma, dosed 104 weeks, study length 104 weeks): negative (inactive)

C=CCN(CC(C)O)N=O (centres undefined)
TD50 (rat, strain Fischer 344, females, in drinking water, site: esophagus, lesion: several types, types named in the paper, dosed 50 weeks, study length 65 weeks): 4.67 mg/kg/day | TD50 (rat, strain Fischer 344, females, in drinking water, site: liver, lesion: hepatocellular carcinoma, dosed 50 weeks, study length 65 weeks): 1.38 mg/kg/day | TD50 (rat, strain Fischer 344, females, in drinking water, site: nasal cavity, lesion: several types, types named in the paper, dosed 50 weeks, study length 65 weeks): 0.877 mg/kg/day

CCCCC/C=C\C/C=C\CCCCCCCC(=O)OC
carcinogen call (rat, strain Wistar, males, by gavage, site: gastrointestinal tract, lesion: several types, types named in the paper, dosed 30 weeks, study length 87 weeks): negative (inactive) | carcinogen call (rat, strain Wistar, males, by gavage, site: liver, lesion: one or several types, types not named, dosed 30 weeks, study length 87 weeks): negative (inactive)

Cc1ccc(Cl)cc1N
TD50 (mouse, strain B6C3F1, females, in feed, site: all sites + liver, lesion: hemangiosarcoma + hepatocellular adenoma + hepatocellular carcinoma, dosed 78 weeks, study length 91 weeks): 143 mg/kg/day | TD50 (mouse, strain B6C3F1, females, in feed, site: all sites, lesion: hemangiosarcoma, dosed 78 weeks, study length 91 weeks): 373 mg/kg/day | TD50 (mouse, strain B6C3F1, females, in feed, site: any site (literature study), lesion: several types, types named in the paper, dosed 78 weeks, study length 91 weeks): 164 mg/kg/day | TD50 (mouse, strain B6C3F1, females, in feed, site: liver, lesion: hepatocellular adenoma + hepatocellular carcinoma + neoplastic nodule, dosed 78 weeks, study length 91 weeks): 180 mg/kg/day | TD50 (mouse, strain B6C3F1, females, in feed, site: liver, lesion: hepatocellular adenoma + hepatocellular carcinoma, dosed 78 weeks, study length 91 weeks): 180 mg/kg/day | TD50 (mouse, strain B6C3F1, females, in feed, site: liver, lesion: hepatocellular carcinoma, dosed 78 weeks, study length 91 weeks): 217 mg/kg/day | TD50 (mouse, strain B6C3F1, females, in feed, site: lung, lesion: alveolar/bronchiolar adenoma + alveolar/bronchiolar carcinoma, dosed 78 weeks, study length 91 weeks): 7480 mg/kg/day | TD50 (mouse, strain B6C3F1, males, in feed, site: all sites + liver, lesion: hemangiosarcoma + hepatocellular adenoma + hepatocellular carcinoma, dosed 78 weeks, study length 91 weeks): 134 mg/kg/day | TD50 (mouse, strain B6C3F1, males, in feed, site: all sites, lesion: hemangiosarcoma, dosed 78 weeks, study length 91 weeks): 213 mg/kg/day | TD50 (mouse, strain B6C3F1, males, in feed, site: any site (literature study), lesion: several types, types named in the paper, dosed 78 weeks, study length 91 weeks): 132 mg/kg/day | TD50 (mouse, strain B6C3F1, males, in feed, site: liver, lesion: hepatocellular adenoma + hepatocellular carcinoma + neoplastic nodule, dosed 78 weeks, study length 91 weeks): 249 mg/kg/day | TD50 (mouse, strain B6C3F1, males, in feed, site: liver, lesion: hepatocellular adenoma + hepatocellular carcinoma, dosed 78 weeks, study length 91 weeks): 249 mg/kg/day | TD50 (mouse, strain B6C3F1, males, in feed, site: liver, lesion: hepatocellular carcinoma, dosed 78 weeks, study length 91 weeks): 271 mg/kg/day | carcinogen call (rat, strain Fischer 344, females, in feed, site: any site (literature study), lesion: several types, types named in the paper, dosed 78 weeks, study length 103 weeks): negative (inactive) | TD50 (rat, strain Fischer 344, males, in feed, site: adrenal gland, lesion: pheochromocytoma, dosed 78 weeks, study length 103 weeks): 714 mg/kg/day (inactive) | TD50 (rat, strain Fischer 344, males, in feed, site: any site (literature study), lesion: several types, types named in the paper, dosed 78 weeks, study length 103 weeks): 1020 mg/kg/day | TD50 (rat, strain Fischer 344, males, in feed, site: liver, lesion: hepatocellular adenoma + hepatocellular carcinoma + neoplastic nodule, dosed 78 weeks, study length 103 weeks): 3340 mg/kg/day

CC(=O)Oc1ccccc1C(=O)O
carcinogen call (mouse, strain C57BL/6, females, in feed, site: liver, lesion: one or several types, types not named, dosed 77 weeks, study length 77 weeks): negative (inactive) | carcinogen call (mouse, strain C57BL/6, males, in feed, site: liver, lesion: one or several types, types not named, dosed 77 weeks, study length 77 weeks): negative (inactive) | carcinogen call (rat, strain Fischer 344, males, in feed, site: colon, lesion: one or several types, types not named, dosed 56 weeks, study length 56 weeks): negative (inactive) | TD50 (rat, strain Fischer 344, males, in feed, site: urinary bladder, lesion: papilloma, dosed 68 weeks, study length 68 weeks): 1670 mg/kg/day | carcinogen call (rat, strain Wistar, males, in feed, site: liver, lesion: one or several types, types not named, dosed 52 weeks, study length 52 weeks): negative (inactive) | carcinogen call (rat, strain albino, both sexes, by gavage, site: forestomach, lesion: one or several types, types not named, dosed 78 weeks, study length 78 weeks): negative (inactive) | carcinogen call (rat, strain albino, both sexes, by gavage, site: stomach, glandular, lesion: one or several types, types not named, dosed 78 weeks, study length 78 weeks): negative (inactive)

Clc1ccccc1
TD50 (mouse, strain B6C3F1, females, by gavage, site: any site (literature study), lesion: several types, types named in the paper, dosed 103 weeks, study length 105 weeks): 373 mg/kg/day (inactive) | TD50 (mouse, strain B6C3F1, females, by gavage, site: liver, lesion: hepatocellular adenoma + hepatocellular carcinoma + neoplastic nodule, dosed 103 weeks, study length 105 weeks): 235 mg/kg/day | TD50 (mouse, strain B6C3F1, females, by gavage, site: lung, lesion: alveolar/bronchiolar adenoma + alveolar/bronchiolar carcinoma, dosed 103 weeks, study length 105 weeks): 623 mg/kg/day | TD50 (mouse, strain B6C3F1, males, by gavage, site: any site (literature study), lesion: several types, types named in the paper, dosed 103 weeks, study length 105 weeks): 60.1 mg/kg/day (inactive) | TD50 (mouse, strain B6C3F1, males, by gavage, site: liver, lesion: hepatocellular adenoma + hepatocellular carcinoma + neoplastic nodule, dosed 103 weeks, study length 105 weeks): 382 mg/kg/day | TD50 (mouse, strain B6C3F1, males, by gavage, site: lung, lesion: alveolar/bronchiolar adenoma + alveolar/bronchiolar carcinoma, dosed 103 weeks, study length 105 weeks): 190 mg/kg/day | TD50 (rat, strain Fischer 344, females, by gavage, site: liver, lesion: hepatocellular adenoma + hepatocellular carcinoma + neoplastic nodule, dosed 103 weeks, study length 104 weeks): 867 mg/kg/day | TD50 (rat, strain Fischer 344, females, by gavage, site: parathyroid + thyroid gland + thyroid follicle, lesion: adenoma, NOS + follicular-cell carcinoma + cystadenoma, NOS, dosed 103 weeks, study length 104 weeks): 520 mg/kg/day (inactive) | TD50 (rat, strain Fischer 344, males, by gavage, site: any site (literature study), lesion: several types, types named in the paper, dosed 103 weeks, study length 104 weeks): 190 mg/kg/day | TD50 (rat, strain Fischer 344, males, by gavage, site: liver, lesion: hepatocellular adenoma + hepatocellular carcinoma + neoplastic nodule, dosed 103 weeks, study length 104 weeks): 328 mg/kg/day | TD50 (rat, strain Fischer 344, males, by gavage, site: liver, lesion: neoplastic nodule, dosed 103 weeks, study length 104 weeks): 247 mg/kg/day

O=NN(CCO)CC(O)CO (centres undefined)
TD50 (hamster, strain Syrian Golden, females, by gavage, site: trachea, lesion: adenoma, dosed 50 weeks, study length 104 weeks): 52.7 mg/kg/day | TD50 (rat, strain Fischer 344, females, in drinking water, site: liver, lesion: hepatocellular carcinoma, dosed 75 weeks, study length 120 weeks): 11.5 mg/kg/day | TD50 (rat, strain Fischer 344, females, in drinking water, site: liver, lesion: neoplastic nodule, dosed 75 weeks, study length 120 weeks): 8.69 mg/kg/day | TD50 (rat, strain Fischer 344, females, in drinking water, site: liver, lesion: several types, types named in the paper, dosed 75 weeks, study length 120 weeks): 5.98 mg/kg/day
